Data as given in US20210380548A1, “Fused [1,2,4]Thiadiazine Derivatives Which Act as KAT Inhibitors of the MYST Family” (CTxT Pty Limited, priority 2017, published 2021).

How the values were obtained:
TIP60-KAT5 [1] = biological target: T1, TIP60-KAT5 (Homo sapiens, UniProt Q92993); experiment: Acetyltransferase biochemical assay (AlphaScreen), KAT5; conditions: Table 1 (TIP60-KAT5); 0.4 μM Acetyl coenzyme A, histone H4, 10 nM enzyme
T1 construct: encoding amino acid residues 2 to 461 (Uniprot Q92993-2) of human KAT5 isoform; made in house; host or cells: E. coli BL21 DE3
T1 sequence (Q92993 2-461 isoform Q92993-2): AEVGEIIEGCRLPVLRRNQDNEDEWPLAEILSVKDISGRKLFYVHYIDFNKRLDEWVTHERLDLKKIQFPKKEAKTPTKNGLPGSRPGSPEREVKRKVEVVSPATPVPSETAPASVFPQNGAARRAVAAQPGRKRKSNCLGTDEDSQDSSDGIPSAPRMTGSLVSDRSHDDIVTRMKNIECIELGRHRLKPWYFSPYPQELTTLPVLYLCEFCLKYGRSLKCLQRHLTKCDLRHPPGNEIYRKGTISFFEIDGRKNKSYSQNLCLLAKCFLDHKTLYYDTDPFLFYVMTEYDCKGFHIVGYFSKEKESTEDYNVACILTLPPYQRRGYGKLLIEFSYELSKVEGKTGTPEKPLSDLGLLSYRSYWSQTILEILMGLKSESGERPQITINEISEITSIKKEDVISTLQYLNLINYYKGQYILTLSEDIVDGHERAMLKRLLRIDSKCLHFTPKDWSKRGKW

MOZ-KAT6A [2] = biological target: T2, MOZ-KAT6A (Homo sapiens, UniProt Q92794, A567V); experiment: Acetyltransferase biochemical assay (AlphaScreen), KAT6A; conditions: Table 2 (MOZ-KAT6A); 10 μM Acetyl coenzyme A, histone H3.1, 5 nM enzyme
T2 construct: encoding amino acid residues 507 to 778 (Uniprot Q92794-1) of human KAT6A; made in house; host or cells: E. coli BL21 DE3
T2 sequence (Q92794 507-778 A567V limits assumed): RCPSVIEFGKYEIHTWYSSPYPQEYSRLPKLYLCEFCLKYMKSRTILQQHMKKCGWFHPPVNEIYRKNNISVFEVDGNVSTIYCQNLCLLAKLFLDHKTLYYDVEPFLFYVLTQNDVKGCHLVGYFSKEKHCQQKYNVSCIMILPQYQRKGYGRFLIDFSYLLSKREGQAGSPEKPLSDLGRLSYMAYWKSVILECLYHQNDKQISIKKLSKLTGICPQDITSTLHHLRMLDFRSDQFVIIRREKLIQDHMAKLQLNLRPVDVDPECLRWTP

HBO-KAT7 [3] = biological target: T3, HBO-KAT7 (Homo sapiens, UniProt O95251); experiment: Acetyltransferase biochemical assay (AlphaScreen), KAT7; conditions: Table 3 (HBO-KAT7); 0.4 μM Acetyl coenzyme A, histone H3.1, 40 nM enzyme
T3 construct: encoding amino acid residues 325 to 611 (Uniprot 095251-1) of human KAT7; made in house; host or cells: E. coli BL21 DE3 RIL
T3 sequence (O95251 with tags, fused parts or gaps): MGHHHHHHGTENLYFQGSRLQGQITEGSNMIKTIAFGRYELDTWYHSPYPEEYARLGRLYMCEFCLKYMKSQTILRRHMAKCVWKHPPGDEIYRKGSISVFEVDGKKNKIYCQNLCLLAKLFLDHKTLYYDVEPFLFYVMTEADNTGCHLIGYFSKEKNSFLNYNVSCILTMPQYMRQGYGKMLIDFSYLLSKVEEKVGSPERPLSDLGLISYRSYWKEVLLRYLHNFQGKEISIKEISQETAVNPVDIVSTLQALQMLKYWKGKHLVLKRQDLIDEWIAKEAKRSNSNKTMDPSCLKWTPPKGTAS

[4] = test system: histone H3K14 acetylation (HBO1 mediated) in U2OS cells; experiment: Histone H3 Lysine 14 Acetylation Biomarker Assay (96 well, U2OS); assay type: cell-based; conditions: Homo sapiens, 24 h, Table 6, H3K14ac, 24 hours incubation, serum free medium
Procedure: Compounds may be tested for their ability to inhibit acetylation of the histone H3K14 marker (which is HBO1 mediated) in the following assay:
The cell line U2OS was seeded at a density of 12,000 cells per well in 96 well optical quality tissue culture plates in RPMI medium and 10% foetal bovine serum, and allowed to adhere for 24 hours under standard culture conditions (37 degree Celsius, 5% CO2). At the end of this period the cells were washed with serum free medium. Compound dilutions prepared in DMSO were added to the serum free medium, with negative control wells reserved for treatment with DMSO only and positive controls receiving a potent inhibitor compound (e.g. Example 36 in WO2016/198507) at 10 μM concentration. After incubation for 24 hours, the cells were fixed with 3.7% formaldehyde in PBS for 20 minutes at room temperature, washed with phosphate buffer saline containing 0.1% Tween 20 and blocked with Odyssey blocking buffer (LI-COR, Lincoln, Nebr.) containing 0.1% TritonX100. Anti-H3K14ac specific antibody (Cell Signalling Technologies) in Odyssey blocking buffer containing 0.1% Tween 20 was added and incubated for 14 hours at 4 degree Celsius. After washing, a secondary antibody labelled with Alexa647 dye (LifeTechnologies) and Hoechst 33342 (1 μg/mL, SigmaAldrich) were added for 1 hour incubation. Plates were washed and read on a PerkinElmer Phenix high content imaging platform. Using a Columbus image analysis pipeline, individual nuclei were located by Hoechst 33342 stain and the acetylation level was calculated from the Alexa647-related intensity in the same area. The resulting mean intensity per cell was directly converted to percent inhibition relative to controls on the same plate and the data fitted against a four-parameter logistic model to determine the 50% inhibitory concentration (IC50).

MOZ-KAT6A [5] = biological target: T2, MOZ-KAT6A; experiment: Revised Acetyltransferase Biochemical Assay, KAT6A; conditions: Table 8 (MOZ-KAT6A), 1 μM Acetyl coenzyme A
HBO-KAT7 [6] = biological target: T3, HBO-KAT7; experiment: Revised Acetyltransferase Biochemical Assay, KAT7; conditions: Table 9 (HBO-KAT7), 1 μM Acetyl coenzyme A
TIP60-KAT5 [7] = biological target: T1, TIP60-KAT5; experiment: Revised Acetyltransferase Biochemical Assay, KAT5; conditions: 10 nM KAT5, 1 μM AcCoA, 100 nM histone H4, 90 min
MOF-KAT8 [8] = biological target: T4, MOF-KAT8 (Homo sapiens, UniProt Q9H7Z6); experiment: Acetyltransferase biochemical assay (AlphaScreen), KAT8; conditions: Table 4 (MOF-KAT8); 0.4 μM Acetyl coenzyme A, histone H4, 20 nM enzyme
T4 sequence (Q9H7Z6 177-447): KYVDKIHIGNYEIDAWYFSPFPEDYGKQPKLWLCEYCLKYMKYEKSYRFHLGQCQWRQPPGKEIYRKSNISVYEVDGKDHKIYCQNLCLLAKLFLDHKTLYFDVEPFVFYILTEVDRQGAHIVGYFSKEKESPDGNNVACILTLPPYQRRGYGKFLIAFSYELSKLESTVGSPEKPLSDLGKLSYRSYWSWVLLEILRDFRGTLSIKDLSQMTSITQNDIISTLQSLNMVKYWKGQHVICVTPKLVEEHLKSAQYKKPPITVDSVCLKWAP

QKF-KAT6B = biological target: T5, QKF-KAT6B (Homo sapiens, UniProt Q8WYB5); experiment: Revised Acetyltransferase Biochemical Assay, KAT6B; conditions: 8 nM KAT6B, 1 μM AcCoA, 100 nM histone H3.1, 90 min
T5 construct: purchased SignalChem K315-381BG
T5 sequence (Q8WYB5 whole entry): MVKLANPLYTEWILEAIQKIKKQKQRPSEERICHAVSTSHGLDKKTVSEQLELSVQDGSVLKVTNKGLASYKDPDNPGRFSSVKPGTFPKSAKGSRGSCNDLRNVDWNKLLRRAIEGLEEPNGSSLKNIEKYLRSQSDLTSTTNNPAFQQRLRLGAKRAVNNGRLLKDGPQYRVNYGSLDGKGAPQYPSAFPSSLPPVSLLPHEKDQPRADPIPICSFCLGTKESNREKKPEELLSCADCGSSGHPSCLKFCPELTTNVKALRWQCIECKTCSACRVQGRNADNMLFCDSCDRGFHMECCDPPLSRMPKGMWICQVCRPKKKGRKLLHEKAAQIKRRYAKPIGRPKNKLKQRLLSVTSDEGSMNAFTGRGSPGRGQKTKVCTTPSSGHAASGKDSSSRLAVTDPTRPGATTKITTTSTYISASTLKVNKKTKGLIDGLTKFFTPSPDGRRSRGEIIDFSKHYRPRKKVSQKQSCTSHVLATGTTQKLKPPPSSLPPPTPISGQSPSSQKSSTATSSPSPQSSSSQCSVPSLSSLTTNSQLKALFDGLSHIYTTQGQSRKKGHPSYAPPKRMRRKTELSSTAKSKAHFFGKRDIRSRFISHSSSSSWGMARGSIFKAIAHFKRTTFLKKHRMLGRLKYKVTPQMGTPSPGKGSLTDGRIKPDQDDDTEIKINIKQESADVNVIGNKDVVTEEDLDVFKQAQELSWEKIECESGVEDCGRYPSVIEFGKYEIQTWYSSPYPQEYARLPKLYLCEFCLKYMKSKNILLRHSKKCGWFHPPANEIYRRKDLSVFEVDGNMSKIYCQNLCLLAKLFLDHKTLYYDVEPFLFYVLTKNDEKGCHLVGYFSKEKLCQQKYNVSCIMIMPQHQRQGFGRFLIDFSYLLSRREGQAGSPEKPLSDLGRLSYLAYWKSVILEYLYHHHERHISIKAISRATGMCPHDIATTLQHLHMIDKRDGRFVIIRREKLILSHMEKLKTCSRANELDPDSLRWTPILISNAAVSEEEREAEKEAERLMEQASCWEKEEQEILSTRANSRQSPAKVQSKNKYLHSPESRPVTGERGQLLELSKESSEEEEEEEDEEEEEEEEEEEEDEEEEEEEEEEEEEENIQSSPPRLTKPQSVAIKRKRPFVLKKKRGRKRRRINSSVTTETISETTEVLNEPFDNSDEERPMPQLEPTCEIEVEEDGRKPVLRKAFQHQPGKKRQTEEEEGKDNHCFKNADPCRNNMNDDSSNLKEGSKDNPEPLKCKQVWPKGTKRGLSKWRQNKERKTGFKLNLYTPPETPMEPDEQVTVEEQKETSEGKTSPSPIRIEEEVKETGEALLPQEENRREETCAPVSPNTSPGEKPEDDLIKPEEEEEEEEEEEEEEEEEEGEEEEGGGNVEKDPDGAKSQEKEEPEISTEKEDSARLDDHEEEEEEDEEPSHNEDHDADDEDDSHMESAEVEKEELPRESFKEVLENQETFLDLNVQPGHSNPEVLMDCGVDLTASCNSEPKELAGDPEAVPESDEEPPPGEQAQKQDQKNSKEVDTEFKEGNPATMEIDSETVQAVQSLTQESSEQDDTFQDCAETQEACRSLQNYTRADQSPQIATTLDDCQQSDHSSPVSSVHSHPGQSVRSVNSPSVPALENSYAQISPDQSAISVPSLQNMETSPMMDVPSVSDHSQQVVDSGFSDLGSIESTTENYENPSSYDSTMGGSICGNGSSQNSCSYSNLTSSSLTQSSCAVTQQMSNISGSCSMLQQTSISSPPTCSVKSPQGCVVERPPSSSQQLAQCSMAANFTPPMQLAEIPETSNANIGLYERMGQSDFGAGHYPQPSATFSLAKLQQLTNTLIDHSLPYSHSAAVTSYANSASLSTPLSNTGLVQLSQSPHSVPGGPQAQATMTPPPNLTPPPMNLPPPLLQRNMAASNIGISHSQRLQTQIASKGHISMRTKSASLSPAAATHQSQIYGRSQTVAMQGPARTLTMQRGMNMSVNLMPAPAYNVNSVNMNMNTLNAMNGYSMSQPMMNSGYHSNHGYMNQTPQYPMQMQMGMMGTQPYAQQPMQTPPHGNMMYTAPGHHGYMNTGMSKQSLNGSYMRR
Description: KAT6B was obtained from SignalChem, catalog ID: K315-381BG

[9] = test system: histone H3 Lysine 14 acetylation (HBO1 mediated) in U2OS cells; experiment: Histone H3 Lysine 14 Acetylation Biomarker Assay (384-well, U2OS); assay type: cell-based; conditions: Homo sapiens, serum free medium, 24 hours incubation
Method in brief: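 U2OS cells in serum-free medium treated with compound 24 h; DMSO and 10 μM reference inhibitor as 0% and 100% controls. Fixed cells immunostained for H3K14ac (AlexaFluor 488) with Hoechst nuclear mask, imaged by high-content analysis; per-cell intensity converted to % inhibition, IC50 by four-parameter logistic fit.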

[10] = test system: histone H2A.Z Lysine 7 acetylation (TIP60 mediated) in U2OS cells; experiment: H2A.Z Lysine 7 Acetylation Biomarker Assay (384-well, U2OS); assay type: cell-based; conditions: Homo sapiens, serum free medium, 24 hours incubation
Method in brief: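 U2OS cells (3,000/well) were treated with compound for 24 h after a serum-free wash, then fixed. They were stained with anti-H2A.ZK7ac, an AlexaFluor 488 secondary and Hoechst. High-content imaging gave mean nuclear intensity per cell, converted to percent inhibition against on-plate controls, and IC50 came from a four-parameter logistic fit.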

[11] = test system: histone H3K23 acetylation (KATE mediated) in U2OS cells; experiment: Histone H3 Lysine 23 Acetylation Biomarker Assay (U2OS); assay type: cell-based; conditions: Homo sapiens, 96 well, 24 hours incubation
Method in brief: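 U2OS cells were treated with compound for 24 h, then fixed and immunostained for H3K23ac with Hoechst nuclear counterstain. Per-nucleus Alexa647 intensity was quantified by high-content imaging and converted to % inhibition against DMSO and 10 μM reference-inhibitor controls. IC50 was derived from a four-parameter logistic fit.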

MOF-KAT8 [12] = biological target: T4, MOF-KAT8; experiment: Revised Acetyltransferase Biochemical Assay, KAT8

Row | IC50 (TIP60-KAT5 [1]) | IC50 (MOZ-KAT6A [2]) | IC50 (HBO-KAT7 [3]) | IC50 [4] | IC50 (MOZ-KAT6A [5]) | IC50 (HBO-KAT7 [6]) | IC50 (TIP60-KAT5 [7]) | IC50 (MOF-KAT8 [8]) | IC50 (QKF-KAT6B) | IC50 [9] | IC50 [10] | IC50 [11] | IC50 (MOF-KAT8 [12]) | SMILES
1 |  |  |  |  | 6 nM | 237 nM | 284 nM | 50000 nM | 59 nM | 488 nM | 8100 nM | 84 nM | 24500 nM | O=C(NCC(c1ccccc1)c1ncco1)C1=Nc2ccc(Cl)cc2S(=O)(=O)N1 (stereo not shown) [Example 182]
2 |  |  |  |  | 80 nM | 25 nM | 818 nM |  | 991 nM | 95 nM | 882 nM | 1010 nM | 78600 nM | COc1cc(C)cc(C(CNC(=O)C2=Nc3ccc(I)cc3S(=O)(=O)N2)c2ncco2)c1 (stereo not shown) [Example 196, 7-iodo-N-(2-(3-methoxy-5-methylphenyl)-2-(oxazol-2-yl)ethyl)-2H-benzo[e][1,2,4]thiadiazine-3-carboxamide 1,1-dioxide]
3 |  |  |  |  | 427 nM | 1670 nM | 3750 nM | 103000 nM | 3310 nM | 2260 nM | > 40000 nM | > 10000 nM | 115000 nM | CN(CC(c1ccccc1)c1ncco1)C(=O)C1=Nc2ccc(I)cc2S(=O)(=O)N1 (stereo not shown) [Example 203]
4 |  |  |  |  | 2 nM | 111 nM | 193 nM | 3540 nM | 22 nM | 4940 nM | 29500 nM | 116 nM | 15200 nM | O=C(NCC(c1ccccc1)c1ncco1)C1=Nc2ccc(-c3c[nH]nn3)cc2S(=O)(=O)N1 (stereo not shown) [Example 213, N-(2-(Oxazol-2-yl)-2-phenylethyl)-7-(1H-1,2,3-triazol-4-yl)-2H-benzo[e][1,2,4]thiadiazine-3-carboxamide 1,1-dioxide]
5 |  |  |  |  | 4 nM | 20 nM | 25 nM | 8740 nM | 65 nM | 221 nM | 4440 nM | 953 nM | 5720 nM | O=C(NCC(c1cccc(O)c1)c1ncco1)C1=Nc2ccc(I)cc2S(=O)(=O)N1 (stereo not shown) [Example 215, N-(2-(3-Hydroxyphenyl)-2-(oxazol-2-yl)ethyl)-7-iodo-2H-benzo[e][1,2,4]thiadiazine-3-carboxamide 1,1-dioxide]
6 |  |  |  |  | 100 nM | 143 nM | 306 nM |  | 3240 nM | 3880 nM | 4520 nM | > 10000 nM | 6530 nM | O=C(NCC(F)(F)c1ccccc1OC(F)F)C1=Nc2ccc(I)cc2S(=O)(=O)N1 [Example 231, N-(2-(2-(difluoromethoxy)phenyl)-2,2-difluoroethyl)-7-iodo-2H-benzo[e][1,2,4]thiadiazine-3-carboxamide 1,1-dioxide]

The next lines start with the molecule.

Row | SMILES | IC50 (TIP60-KAT5 [1]) | IC50 (MOZ-KAT6A [2]) | IC50 (HBO-KAT7 [3]) | IC50 [4] | IC50 (MOZ-KAT6A [5]) | IC50 (HBO-KAT7 [6]) | IC50 (TIP60-KAT5 [7]) | IC50 (MOF-KAT8 [8]) | IC50 (QKF-KAT6B) | IC50 [9] | IC50 [10] | IC50 [11] | IC50 (MOF-KAT8 [12])
7 | C#Cc1ccc2c(c1)S(=O)(=O)NC(C(=O)NCC(c1ccccc1)c1ccccc1)=N2 [Example 38, N-(2,2-diphenylethyl)-7-ethynyl-2H-benzo[e][1,2,4]thiadiazine-3-carboxamide 1,1-dioxide] | 1960 nM | 532 nM | 154 nM | 1500 nM |  |  |  |  |  |  |  |  | 
8 | O=C(NCC(c1ccc(F)cc1)c1ccccn1)C1=Nc2ccc(Br)cc2S(=O)(=O)N1 (stereo not shown) [Example 39, 7-bromo-N-(2-(4-fluorophenyl)-2-(pyridin-2-yl)ethyl)-2H-benzo[e][1,2,4]thiadiazine-3-carboxamide 1,1-dioxide] | 5880 nM |  | 192 nM | 2490 nM | 32 nM | 299 nM | 3060 nM |  |  |  |  |  | 
9 | O=C(NCC(c1cccc(Cl)c1)c1ncco1)C1=Nc2ccc(I)cc2S(=O)(=O)N1 (stereo not shown) [Example 163] |  |  |  |  | 17 nM | 115 nM | 221 nM | 9780 nM | 117 nM | 892 nM | 1520 nM | 453 nM | 14700 nM
10 | O=C(NCC(c1ccccc1)c1nccs1)C1=Nc2ccc(I)cc2S(=O)(=O)N1 (stereo not shown) [Example 167] |  |  |  |  | 4 nM | 62 nM | 56 nM | 6480 nM | 27 nM | 349 nM | 516 nM | 57 nM | 8400 nM
11 | O=C(NCC(c1ccccc1)c1nncs1)C1=Nc2ccc(I)cc2S(=O)(=O)N1 (stereo not shown) [Example 168] |  |  |  |  | 8 nM | 621 nM | 458 nM | 3390 nM | 37 nM | 6440 nM | 8850 nM | 525 nM | 26500 nM
12 | O=C(NCCc1ccccc1-c1n[nH]c(=O)o1)C1=Nc2ccc(I)cc2S(=O)(=O)N1 [Example 172] |  |  |  |  | 5 nM | 41 nM | 25 nM | 5130 nM | 281 nM | 2870 nM | 2090 nM | > 10000 nM | 6100 nM
13 | O=C(NCC(c1ncco1)c1ccccc1OC(F)F)C1=Nc2ccc(I)cc2S(=O)(=O)N1 (stereo not shown) [Example 179] |  |  |  |  | 5 nM | 28 nM | 29 nM | 10400 nM | 88 nM | 219 nM | 1100 nM | 112 nM | 9660 nM
14 | O=C(NCC(c1ccccc1)c1nnc(CC(F)(F)F)o1)C1=Nc2ccc(I)cc2S(=O)(=O)N1 (stereo not shown) [Example 181] |  |  |  |  | 32 nM | 320 nM | 123 nM | 104000 nM | 77 nM | 35300 nM | > 40000 nM | > 10000 nM | 31200 nM
15 | COCCC(CNC(=O)C1=Nc2ccc(I)cc2S(=O)(=O)N1)c1ccccc1 (stereo not shown) [Example 220, 7-Iodo-N-(4-methoxy-2-phenylbutyl)-2H-benzo[e][1,2,4]thiadiazine-3-carboxamide 1,1-dioxide] |  |  |  |  | 20 nM | 214 nM | 1430 nM |  | 134 nM | 917 nM | 7810 nM | 540 nM | 26800 nM
